Data from patent US10202371B2, “Oxazolidin-2-one-pyrimidine derivatives and the use thereof as phosphatidylinositol-3-kinase inhibitors” (Novartis AG, priority 2012, dated 2019).

Target: PI3Kgamma (Homo sapiens (Human), UniProt P48736)
Assay: Biochemical assay PI3Kgamma (Adapta TR-FRET)
Details: read-out: PI3Kg/IC50
From the text: The TR-FRET Adapta™ Universal Kinase Assay Kit was purchased from Invitrogen
Corporation (Carlsbad/CA, USA) (Cat. No. PV5099). The kit contains the following reagents: Adapta Eu-anti-ADP Antibody (Europium labeled anti-ADP antibody in HEPES buffered saline, Cat. No. PV5097), Alexa Fluor® 647-labeled ADP tracer (Alexa Fluor® 647-labeled ADP tracer in HEPES buffered saline, Cat. No. PV5098), proprietary TR-FRET dilution buffer pH 7.5 (Cat. No. PV3574).
PIK3CD substrate Phosphatidylinositol was obtained from Invitrogen (vesicules consisting of 2 mM PI in 50 mM HEPES pH7.5; Cat. No. PV5371).
Time-Resolved Fluorescence Resonance Energy Transfer (TR-FRET) is a technology based on energy transfer between two adjacent dyes, from an excited electron in one dye (the donor) to an electron of an adjacent dye (the acceptor) through resonance, then released as a photon. This energy transfer is detected by an increase in the fluorescence emission of the acceptor, and a decrease in the fluorescence emission of the donor. TR-FRET assays for protein kinases use a long-lifetime lanthanide Terbium or Europium chelates as the donor species which overcome interference from compound autofluorescence or light scatter from precipitated compounds, by introducing a delay after excitation by a flashlamp excitation source. Results are often expressed as a ratio of the intensities of the acceptor and donor fluorophores. The ratiometric nature of such a value corrects for differences in assay volumes between wells, as well as corrects for quenching effects due to colored compounds. The Adapta™ assay can be divided into two phases: a kinase reaction phase and an ADP detection phase. In the kinase reaction phase, all kinase reaction components are added to the well and the reaction is allowed to incubate for a set period of time specific for each kinase. After the reaction, a detection solution of Eu-labeled anti-ADP antibody, Alexa Fluor® 647-labeled ADP tracer, and EDTA (to stop the kinase reaction) are added to the assay well. ADP formed by the kinase reaction will displace the Alexa Fluor® 647-labeled ADP tracer from the antibody, resulting in a decrease in TR-FRET signal. In the presence of an inhibitor, the amount of ADP formed by the kinase reaction is reduced, and the resulting intact antibody-tracer interaction maintains a high TR-FRET signal. In the Adapta™ assay, the donor (Europium-anti-ADP antibody) is excited at 340 nm and will transfer its energy to the acceptor (Alexa Fluor® 647-labeled ADP tracer). The emission from the Alexa Fluor® 647 can be monitored with a filter centered at 665 nm because it is located between the emission peaks of the donor, which is measured at 615/620 nm.
50 nL of compound dilutions were dispensed onto white 384-well small volume polystyrene plate as described in section 2.2. Then 5 μL of PI3Kg and PI3Kd and lipid substrate (PI or PIP2:PS) followed by 5 μL of ATP (final assay volume 10 μL) are incubated at RT. The standard reaction buffer for the Adapta™ TR-FRET assay contained 10 mM Tris-HCl pH 7.5, 3 mM MgCl2, 50 mM NaCl, 1 mM DTT, 0.05% CHAPS. Reactions were stopped with 5 μL of a mixture of EDTA containing the Eu-labeled anti-ADP antibody and the Alexa Fluor® 647-labeled ADP tracer in TR-FRET dilution buffer (proprietary to IVG). Plates are read 15 to 60 mins later in a Synergy2 reader using an integration time of 0.4 seconds and a delay of 0.05 seconds. […] The standard compound NVP-BGT226 was used as a reference compound and included in all assay plates in the form of 16 dilution points in duplicate.
Data are analyzed using Excel fit software or Graphpad Prism. EC50 values were derived by fitting a sigmoidal dose-response curve to a plot of assay readout over inhibitor concentration. All fits were performed with the program XLfit4 (ID Business Solutions, Guildford, UK). […] All fits were performed with the program XLfit4 (ID Business Solutions, Guildford, UK).

Sequence of PI3Kgamma (P48736 whole entry, species assumed): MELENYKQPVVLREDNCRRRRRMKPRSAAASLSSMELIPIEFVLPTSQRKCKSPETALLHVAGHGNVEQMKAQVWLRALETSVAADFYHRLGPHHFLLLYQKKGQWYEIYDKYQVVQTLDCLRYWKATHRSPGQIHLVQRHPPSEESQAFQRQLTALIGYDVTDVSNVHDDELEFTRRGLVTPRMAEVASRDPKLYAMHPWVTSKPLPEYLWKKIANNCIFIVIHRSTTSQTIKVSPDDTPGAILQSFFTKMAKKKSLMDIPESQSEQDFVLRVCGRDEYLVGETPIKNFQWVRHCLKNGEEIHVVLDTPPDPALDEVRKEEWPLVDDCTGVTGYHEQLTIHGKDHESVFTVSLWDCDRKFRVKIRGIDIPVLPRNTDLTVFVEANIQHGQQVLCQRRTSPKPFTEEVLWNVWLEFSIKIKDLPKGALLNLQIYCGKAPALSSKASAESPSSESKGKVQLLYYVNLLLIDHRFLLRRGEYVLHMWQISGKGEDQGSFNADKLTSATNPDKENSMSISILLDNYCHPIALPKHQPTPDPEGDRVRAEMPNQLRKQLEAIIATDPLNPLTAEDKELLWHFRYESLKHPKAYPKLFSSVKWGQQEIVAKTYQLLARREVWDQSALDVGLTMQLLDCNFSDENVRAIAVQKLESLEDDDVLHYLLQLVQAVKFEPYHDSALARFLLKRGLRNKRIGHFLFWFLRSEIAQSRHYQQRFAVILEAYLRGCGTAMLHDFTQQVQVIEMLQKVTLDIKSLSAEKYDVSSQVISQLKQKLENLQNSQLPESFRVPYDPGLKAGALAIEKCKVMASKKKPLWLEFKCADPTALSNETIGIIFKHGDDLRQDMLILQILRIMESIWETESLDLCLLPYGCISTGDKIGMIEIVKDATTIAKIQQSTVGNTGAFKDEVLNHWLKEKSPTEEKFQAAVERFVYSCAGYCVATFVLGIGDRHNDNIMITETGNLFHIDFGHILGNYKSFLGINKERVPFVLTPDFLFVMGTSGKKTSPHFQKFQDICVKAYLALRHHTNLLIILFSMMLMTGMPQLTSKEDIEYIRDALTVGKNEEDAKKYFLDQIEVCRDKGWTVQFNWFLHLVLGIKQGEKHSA

Compound | IC50
C[C@H]1[C@H](c2nccs2)OC(=O)N1c1cc(-c2cnc(N)nc2C(F)(F)F)nc(N2CCOCC2)n1 [Example 1, (4S,5R)-3-(2′-Amino-2-morpholin-4-yl-4′-trifluoromethyl-[4,5′]bipyrimidinyl-6-yl)-4-methyl-5-thiazol-2-yl-oxazolidin-2-one] | 92 nM
CC[C@H]1[C@H](c2nccs2)OC(=O)N1c1cc(-c2cnc(N)nc2C(F)(F)F)nc(N2CCOCC2)n1 [Example 7] | 3000 nM
CC1C(c2cccnc2)OC(=O)N1c1cc(-c2cnc(N)nc2C(F)(F)F)nc(N2CCOCC2)n1 (stereo not drawn) [Example 9] | 230 nM
Nc1ncc(-c2cc(N3C(=O)O[C@@H](c4ccc(OCCCO)cc4)[C@@H]3CO)nc(N3CCOCC3)n2)c(C(F)(F)F)n1 [Example 14] | 27 nM
C[C@H]1[C@@H](c2nccs2)OC(=O)N1c1cc(-c2cnc(N)nc2C(F)(F)F)nc(N2CCOCC2)n1 [Example 11] | 102 nM
CCC1C(c2cccnc2)OC(=O)N1c1cc(-c2cnc(N)nc2C(F)(F)F)nc(N2CCOCC2)n1 (stereo not drawn) [Example 8] | 580 nM
C[C@H]1[C@H](c2ccccc2)OC(=O)N1c1cc(-c2cnc(N)nc2C(F)(F)F)nc(N2CCOCC2)n1 [Example 5] | 3500 nM
CC[C@H]1[C@H](c2ccc(OC)cc2)OC(=O)N1c1cc(-c2cnc(N)nc2C(F)(F)F)nc(N2CCOCC2)n1 (relative stereo) [Example 2, (4S*,5S*)-3-(2′-amino-2-morpholino-4′-(trifluoromethyl)-[4,5′-bipyrimidin]-6-yl)-4-ethyl-5-(4-methoxyphenyl)oxazolidin-2-one] | 5800 nM
COc1ccc([C@@H]2OC(=O)N(c3cc(-c4cnc(N)nc4C(F)(F)F)nc(N4CCOCC4)n3)[C@H]2CO)cc1 [Example 3, (4S,5S)-3-(2′-Amino-2-morpholino-4′-(trifluoromethyl)-[4,5′-bipyrimidin]-6-yl)-4-(hydroxymethyl)-5-(4-methoxyphenyl)oxazolidin-2-one] | 110 nM
COCCOc1ccc([C@@H]2OC(=O)N(c3cc(-c4cnc(N)nc4C(F)(F)F)nc(N4CCOCC4)n3)[C@H]2CO)cc1 [Example 12] | 135 nM
Nc1ncc(-c2cc(N3C(=O)O[C@@H](c4ccc(OCCO)cc4)[C@@H]3CO)nc(N3CCOCC3)n2)c(C(F)(F)F)n1 [Example 13] | 100 nM
Nc1ncc(-c2cc(N3C(=O)O[C@@H](c4ccccc4)[C@@H]3CO)nc(N3CCOCC3)n2)c(C(F)(F)F)n1 [Example 10] | 343 nM
